From US12583895B2, “Polypeptides for restoring endothelial function and methods of use thereof” (Vanderbilt University, priority 2019, dated 2026)
Non-standard residues stand in square brackets, D forms with d. No end group written: not given here. pS = N[C@@H](COP(=O)(O)O)C(=O)O

What was measured:
rat aorta = assay: Endothelial-dependent relaxation of rat aorta after endoplasmic reticulum stress (tunicamycin) injury; type: cell-based; conditions: NiPp 100 and 500 μM, 2 hours, room temperature
Description: (§1) Freshly isolated rat aorta was treated with tunicamycin (TM) to induce injury in the absence or presence of NiPp (100 and 500 μM) for 2 hours at room temperature. To determine the effect of injury on endothelial function, phenylephrine (PE)-precontracted tissues were treated with carbachol (CCH; 10^−8 to 10^−5M) and the percent relaxation was determined as a change to the maximal PE-induced contraction. Data are reported as mean responses±standard deviation. n=6. *p<0.05, two-way ANOVA.
Muscle bath studies. Tissue rings were suspended in bicarbonate buffer in the muscle bath at 37° C., equilibrated with 95% O2/5% CO2 at 37° C. for 1 hour. Rings were manually stretched to 3 grams of tension, followed by a resting tension of 1 gram for an additional 1 hour to produce a maximal force-tension relationship. […] Relaxation was calculated as percent change in stress compared to the maximal PE-induced contraction (set as 100%).
as §1, with “Data are reported as mean responses±standard deviation. n=6. *p<0.05, two-way ANOVA.” left out

p38 MAPK phosphorylation = p38 MAPK phosphorylation (Western blot) in rat aorta after subfailure stretch injury; type: cell-based; conditions: NiPp 500 μM, 1 h, immunoblot
Description: Freshly isolated rat aorta (RA) was subjected to subfailure stretch and incubated in PL in the absence (S) or presence of NiPp (500 μM) for 1 h at room temperature. […] The percent relaxation was determined as a change to the maximal PE-induced contraction. n=5 rats; #p<0.05, two-way ANOVA. […] Quantification of relative phosphorylation to total p38MAPK level is shown. N=10. *p<0.05, in one-way ANOVA with Tukey post-test. NiPp restores endothelial dysfunction and reduced p38 MAPK phosphorylation induced by stretch injury in RA.
Vascular injury and treatment of RA. Abdominal RA was subjected to subfailure stretch to the haptic endpoint (˜200% the resting length) for 10 s and repeated twice as previously described and a segment was reserved as non-stretched control. The tissues were then cut into 1-2 mm rings and incubated for 1 h at room temperature in PL with or without NiPp (500 μM). To induce acidotic injury, thoracic RA were cut into 1-2 mm rings and pretreated in the absence or presence of NiPp (500 μM) in PL for 30 min. […]
Western blot Analysis. […] The protein-antibody complexes were visualized and quantified using the Odyssey Infrared Imaging System. Phosphorylation was calculated as a ratio of the phosphorylated protein to total protein and was then normalized to the untreated tissues (Ctrl) with the control value set as 1.0.

p38 MAPK β isoform = p38 MAPK β isoform (Homo sapiens, UniProt Q15759); assay: SelectScreen kinase profiling; type: biochemical; conditions: NiPp 100 μM
Sequence of p38 MAPK β isoform (Q15759 whole entry, canonical isoform): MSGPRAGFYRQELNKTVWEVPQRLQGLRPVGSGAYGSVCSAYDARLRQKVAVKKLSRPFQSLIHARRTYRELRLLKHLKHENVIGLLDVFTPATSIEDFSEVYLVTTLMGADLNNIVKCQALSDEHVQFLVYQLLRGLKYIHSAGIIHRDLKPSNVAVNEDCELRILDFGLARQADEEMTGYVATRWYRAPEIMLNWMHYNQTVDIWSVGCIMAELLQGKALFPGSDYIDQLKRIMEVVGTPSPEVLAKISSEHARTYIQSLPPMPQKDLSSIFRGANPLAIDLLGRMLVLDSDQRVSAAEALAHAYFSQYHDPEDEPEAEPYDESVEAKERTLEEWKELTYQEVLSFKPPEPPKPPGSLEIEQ
Description: (§2) Kinase profiling. NiPp was dissolved in DMSO, screened at a single concentration of 100 μM using in vitro kinase assays (SelectScreen Kinase Profiling Service; ThermoFisher Scientific, Madison WI) including the Z'LYTE and Adapta kinase activity assays and the LanthaScreen Eu Kinase Binding Assay). Candidate interactions were predicted using STRING Version 11 (www.string-db-org) with the human database at confidence=0.7.
(§3) Since NiPp treatment was associated with decreased phosphorylation of p38 MAPK in RA, a mechanism of NiPp function can kinase inhibition. Therefore, a kinase profiling assay was performed to determine the effect of NiPp on the activity of a panel of kinases in vitro. The top two kinases inhibited by NiPp were MSK1 and p38 MAPKα. Inhibition to the p38 MAPKα isoform appeared to be specific as inhibition by NiPp to the other isoforms (β, δ, and γ) in the kinaseprofiling screen were only at 5, 3, and 3% respectively. Despite high sequence homology, the isoforms have difference in tissue expression, upstream kinase activators and downstream substrates. The p38 MAPKα isoform, initially identified as a protein that underwent phosphorylation in response to endotoxin treatment and hyperosmolarity shock, plays a role in endothelial dysfunction in that inhibition of this isoform leads to improved endothelial function in animal models of cardiovascular diseases including cardiac hypertrophy, balloon injury, salt/fat induced hypertension and in hypercholesterolemic patients. The α-isoform is also a key regulator of pro-inflammatory cytokine production and itself can be activated by IL1-β. MSK1, a downstream kinase of the p38 MAPK activation (FIG. 19), has complex cell-dependent roles in inflammatory responses. In endothelial cells, MSK1 promotes CREB activation in response to TNFα.

p38 MAPK δ isoform = target: T1, p38 MAPK δ isoform (Homo sapiens, UniProt O15264); assay: SelectScreen kinase profiling; type: biochemical; conditions: NiPp 100 μM
T1 sequence (O15264 1-365): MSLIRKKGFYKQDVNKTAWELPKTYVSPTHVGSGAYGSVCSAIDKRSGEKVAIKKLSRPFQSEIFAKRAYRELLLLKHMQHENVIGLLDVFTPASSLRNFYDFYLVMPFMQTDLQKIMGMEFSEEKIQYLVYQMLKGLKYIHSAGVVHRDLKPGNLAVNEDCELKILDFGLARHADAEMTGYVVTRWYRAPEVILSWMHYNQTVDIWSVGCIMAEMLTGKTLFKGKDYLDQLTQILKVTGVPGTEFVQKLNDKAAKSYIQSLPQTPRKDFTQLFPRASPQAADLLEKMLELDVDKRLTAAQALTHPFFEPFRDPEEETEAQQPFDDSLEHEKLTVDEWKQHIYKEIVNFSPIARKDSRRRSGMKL
Description: as §2, §3

For “YARAAARQARASPAARRA(pS)AILPG (YARAAARQARASPAARRA[pS]AILPG) [NiPp, Cell-permeant phosphopeptide mimetic of Niban: transduction domain … conjugated to the region surrounding serine 602 of Niban]”, the “endothelial function (percent relaxation to carbachol) after tunicamycin injury” value (rat aorta) was “restored”, the “p38 MAPK phosphorylation relative to total p38 MAPK after stretch injury” value (p38 MAPK phosphorylation) was “reduced” and the “% inhibition of p38 MAPK β isoform” value (p38 MAPK β isoform) was 5%. The “% inhibition of p38 MAPK δ isoform” value (p38 MAPK δ isoform) was 3%.
